Measurements reported in patent US20260297083A1, “SUBSTITUTED ACETYLENE COMPOUND DERIVATIVES AND THEIR PHARMACEUTICAL USE” (AVELOS THERAPEUTICS INC., priority 2023, published 2026).

Target: T1, Polθ polymerase domain (amino acids 1792-2590) (Homo sapiens, UniProt O75417)
T1 construct: 10×Histidine-SUMO (N, cleaved yes); made in house; host or cells: E. coli
T1 sequence (O75417 1792-2590): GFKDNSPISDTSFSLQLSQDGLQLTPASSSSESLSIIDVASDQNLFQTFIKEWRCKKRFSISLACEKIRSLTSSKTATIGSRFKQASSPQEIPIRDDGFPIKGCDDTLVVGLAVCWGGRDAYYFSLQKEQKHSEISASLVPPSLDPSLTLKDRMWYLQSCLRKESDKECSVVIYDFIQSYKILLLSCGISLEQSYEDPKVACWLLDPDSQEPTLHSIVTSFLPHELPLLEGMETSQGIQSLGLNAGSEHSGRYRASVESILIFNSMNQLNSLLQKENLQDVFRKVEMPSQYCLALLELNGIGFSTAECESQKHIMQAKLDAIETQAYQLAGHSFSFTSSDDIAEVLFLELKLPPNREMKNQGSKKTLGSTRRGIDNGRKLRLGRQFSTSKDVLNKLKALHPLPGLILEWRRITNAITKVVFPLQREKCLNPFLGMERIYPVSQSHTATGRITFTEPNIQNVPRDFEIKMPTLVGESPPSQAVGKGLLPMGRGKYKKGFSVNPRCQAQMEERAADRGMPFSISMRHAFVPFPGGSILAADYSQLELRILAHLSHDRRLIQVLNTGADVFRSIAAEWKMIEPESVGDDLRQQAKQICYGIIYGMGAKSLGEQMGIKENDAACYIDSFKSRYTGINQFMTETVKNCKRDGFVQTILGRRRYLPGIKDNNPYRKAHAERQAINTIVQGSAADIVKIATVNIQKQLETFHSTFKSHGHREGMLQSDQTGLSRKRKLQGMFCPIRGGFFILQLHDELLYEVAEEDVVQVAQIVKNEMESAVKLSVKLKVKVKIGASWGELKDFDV
Assay: Picogreen assay of Polθ polymerase activity
Format: biochemical
Conditions: 12-point concentration response, 90 minutes incubation at room temperature, 8 nM Polθ in 2×polymerase mixture, read-out: PolQ IC50
Excerpt: The DNA sequence of the polQ gene (Genebank ID #NM 199420.4) was chemically synthesized. The DNA sequence encoding the polymerase domain (amino acids 1792-2590) was subcloned into an E. coli expression plasmid, resulting in the fusion of 10×Histidine-SUMO tag at the N terminus of the polymerase domain.
The protein was expressed in E. coli. and purified using a 2-step IMAC (immobilized metal chelate affinity chromatography) procedure. Briefly stated, the overexpressed E. coli lysate was subjected to Ni-NTA purification, and an N-terminal tag was digested by a SUMO protease. Then, the excised fragment of 10×Histidine-SUMO tag was removed using Ni-NTA beads. The resulting protein was used for the Picogreen assay, as described below.
The methods of DNA complex preparation were slightly modified from the protocol previously reported (Zatreanu et al., 2021, Nature Communications, 12:3636). Briefly stated, polθ substrate was prepared by mixing Oligo1 (5′-GCG GCT GTC ATA AG-3′) and Oligo2 (5′-GCTACATTGACAATGGCATCAAATCTCAGATTGCGTCTTATGACAGCCGCG-3′) in an annealing buffer (20 mM Tris-Cl, pH 7.5, 50 mM NaCl) to the final concentration of 22 uM and 20 uM, respectively. The Polθ product was prepared by mixing Oligo3 (5′-CGCGGCTGTCATAAGACGCAATCTGAGATTTGATGCCATTGTCAATGTAGC-3′) and Oligo2 (5′-GCTACATTGACAATGGCATCAAATCTCAGATTGCGTCTTATGACAGCCGCG-3′) to the final concentration of 20 uM. The polθ product was used for the top signal control in the Picogreen assay. Both substrate and product were heated to 95° C. […] and cooled slowly to room temperature.
To evaluate the ability of test compounds to inhibit the activity of polθ in vitro, a Picogreen assay was performed to measure polθ IC50 (nM).
The reactions were performed at room temperature in an assay buffer (25 mM Tris-HCl, pH 7.5, 12.5 mM NaCl, 0.5 mM MgCl2, 5% (v/v) glycerol, 0.01% (v/v) Triton X-100, 0.01% (w/v) Bovine serum albumin, 1 mM DTT). Thirty microliters of 2×polymerase mixture (8 nM Polθ enzyme in an assay buffer) were distributed to 96 well plates, test compounds were prepared by dilution in 100% DMSO to obtain the correct dose range for a 12-point concentration response and 1 μl was dispensed into each well, and then 30 microliters of 2×substrate mix (100 nM DNA and 40 uM dNTPs in an assay buffer) was added. After 90 minutes of incubation, the reaction was stopped and DNA was stained by adding 40 microliters of Picogreen solution (1:80 dilution of Picogreen, Invitrogen, Cat #P7581, 25 mM Tris-HCl, pH 7.5, 10 mM EDTA, pH 7.5).
The fluorescence intensity was measured at excitation/emission=485 nm/520 nm using an Ensight plate reader (Perkin Elmer). The data was analyzed by GraphPad Prism software (Version 8.4.3) to calculate IC50.

Structure (SMILES)	IC50
Cc1cc(C(F)(F)F)cc(N2[C@H](C(=O)N(CC#Cc3cccc(=O)[nH]3)c3ccc(F)c(C)c3)CCS2(=O)=O)n1 [compound 87]	51 to 100 nM
Cc1cccc(N(CC#Cc2ccc(N)nn2)C(=O)[C@@H]2CCC(=O)N2c2cc(C(F)(F)F)cc(C)n2)c1 [compound 1]	1 to 50 nM
Cc1cc(C(F)(F)F)cc(N2[C@H](C(=O)N(CC#Cc3nc(C)c(C(N)=O)nc3C)c3ccc(F)c(C)c3)CCS2(=O)=O)n1 [compound 119]	1 to 50 nM
Cc1cc(C(F)(F)F)cc(N2[C@H](C(=O)N(CC#Cc3cnc(C(N)=O)c(C#N)c3)c3ccc(F)c(C)c3)CCS2(=O)=O)n1 [compound 121]	1 to 50 nM
Cc1cc(C(F)(F)F)cc(N2[C@H](C(=O)N(CC#Cc3cnc4c(c3)C(=O)N(C)C4=O)c3ccc(F)c(C)c3)CCS2(=O)=O)n1 [compound 100]	1 to 50 nM
Cc1cc(C(F)(F)F)cc(N2[C@H](C(=O)N(CC#Cc3ccc(C(N)=O)cc3)c3ccc(F)c(C)c3)CCS2(=O)=O)n1 [compound 105]	1 to 50 nM
Cc1cc(C(F)(F)F)cc(N2[C@H](C(=O)N(CC#Cc3n[nH]c(=O)c4ccccc34)c3ccc(F)c(C)c3)CCS2(=O)=O)n1 [compound 101]	51 to 100 nM
Cc1cc(C(F)(F)F)cc(N2[C@H](C(=O)N(CC#Cc3cccc(=O)n3C)c3ccc(F)c(C)c3)CCS2(=O)=O)n1 [compound 92]	1 to 50 nM
Cc1cc(C(F)(F)F)cc(N2[C@H](C(=O)N(CC#Cc3nc(C(N)=O)co3)c3ccc(F)c(C)c3)CCS2(=O)=O)n1 [compound 104]	1 to 50 nM
Cc1cc(C(F)(F)F)cc(N2[C@H](C(=O)N(CC#Cc3ccc(Cc4cnc5ccc(=O)[nH]c5c4)nc3)c3ccc(F)c(C)c3)CCS2(=O)=O)n1 [compound 134]	1 to 50 nM
Cc1cc(C(F)(F)F)cc(N2[C@H](C(=O)N(CC#Cc3ncc(C(N)=O)nn3)c3ccc(F)c(C)c3)CCS2(=O)=O)n1 [compound 124]	1 to 50 nM
C=C(F)C(=O)Nc1cncc(C#CCN(C(=O)[C@@H]2CCS(=O)(=O)N2c2cc(C(F)(F)F)cc(C)n2)c2ccc(F)c(C)c2)c1 [compound 130]	1 to 50 nM
Cc1cc(C(F)(F)F)cc(N2[C@H](C(=O)N(CC#Cc3cncc(C(=O)N4CCNCC4)n3)c3ccc(F)c(C)c3)CCS2(=O)=O)n1 [compound 72]	1 to 50 nM
C=CC(=O)Nc1cccc(C#CCN(C(=O)[C@@H]2CCS(=O)(=O)N2c2cc(C(F)(F)F)cc(C)n2)c2ccc(F)c(C)c2)n1 [compound 137, (S)-N-(3-(6-acrylamidopyridin-2-yl)prop-2-yn-1-yl)-N-(4-fluoro-3-methylphenyl)-2-(6-methyl-4-(trifluoromethyl)pyridin-2-yl)isothiazolidine-3-carboxamide 1,1-dioxide]	1 to 50 nM
Cc1cc(C(F)(F)F)cc(N2[C@H](C(=O)N(CC#Cc3cncc(C(=O)N4CCOCC4)n3)c3ccc(F)c(C)c3)CCS2(=O)=O)n1 [compound 70]	1 to 50 nM
Cc1cc(C(F)(F)F)cc(N2C(=O)CC[C@H]2C(=O)N(CC#Cc2ccc(N)nn2)c2ccc(F)c(Cl)c2)n1 [compound 3]	1 to 50 nM
Cc1cc(C(F)(F)F)cc(N2[C@H](C(=O)N(CC#Cc3ccc(C(N)=O)nc3C)c3ccc(F)c(C)c3)CCS2(=O)=O)n1 [compound 117]	1 to 50 nM

Further lines, results first:

IC50	Structure (SMILES)
1 to 50 nM	Cc1cc(C(F)(F)F)cc(N2[C@H](C(=O)N(CC#Cc3cc(F)c(C(N)=O)cn3)c3ccc(F)c(C)c3)CCS2(=O)=O)n1 [compound 122]
> 101 nM	Cc1cc(C(F)(F)F)cc(N2[C@H](C(=O)N(CC#Cc3cnc(C(N)=O)cn3)c3ccc(F)c(C)c3)CCS2(=O)=O)n1 [compound 61]
> 101 nM	Cc1cc(C(F)(F)F)cc(N2[C@H](C(=O)N(CC#Cc3cncc(C(=O)N4C[C@H](C)N[C@@H](C)C4)n3)c3ccc(F)c(C)c3)CCS2(=O)=O)n1 [compound 74]
1 to 50 nM	Cc1ccc(F)c(N(CC#Cc2cnc(N)cn2)C(=O)[C@@H]2CCS(=O)(=O)N2c2cc(C(F)(F)F)cc(C)n2)c1 [compound 33]
1 to 50 nM	Cc1cc(C(F)(F)F)cc(N2[C@H](C(=O)N(CC#Cc3cnc4c(c3)C(C)(C)N(C)C4=O)c3ccc(F)c(C)c3)CCS2(=O)=O)n1 [compound 99]
1 to 50 nM	CNC(=O)c1cnc(C#CCN(C(=O)[C@@H]2CCS(=O)(=O)N2c2cc(C(F)(F)F)cc(C)n2)c2ccc(F)c(C)c2)cn1 [compound 67]
1 to 50 nM	Cc1cc(C(F)(F)F)cc(N2[C@H](C(=O)N(CC#Cc3ccc(N4CCOCC4)cn3)c3ccc(F)c(C)c3)CCS2(=O)=O)n1 [compound 84]
> 101 nM	Cc1cc(C(F)(F)F)cc(N2[C@H](C(=O)N(CC#Cc3ncc(C(N)=O)cn3)c3ccc(F)c(C)c3)CCS2(=O)=O)n1 [compound 81]
1 to 50 nM	Cc1cc(C(F)(F)F)cc(N2[C@H](C(=O)N(CC#Cc3ccc(NC(C)C)nn3)c3ccc(F)c(C)c3)CCS2(=O)=O)n1 [compound 20]
1 to 50 nM	Cc1cc(C(F)(F)F)cc(N2[C@H](C(=O)N(CC#Cc3cnc(N4[C@H](C)CN(C(C)C)C[C@H]4C)cn3)c3ccc(F)c(C)c3)CCS2(=O)=O)n1 [compound 55]
> 101 nM	Cc1cc(C(F)(F)F)cc(N2[C@H](C(=O)N(CC#Cc3cnc(N4C[C@H](C)N(C(C)C)[C@@H](C)C4)cn3)c3ccc(F)c(C)c3)CCS2(=O)=O)n1 (stereo in doubt) [compound 54]
1 to 50 nM	Cc1cc(C(F)(F)F)cc(N2[C@H](C(=O)N(CC#Cc3cncc(N4CCOCC4)n3)c3ccc(F)c(C)c3)CCS2(=O)=O)n1 [compound 42]
1 to 50 nM	C=CC(=O)Nc1cncc(C#CCN(C(=O)[C@@H]2CCS(=O)(=O)N2c2cc(C(F)(F)F)cc(C)n2)c2ccc(F)c(C)c2)n1 [compound 128]
1 to 50 nM	Cc1cc(C(F)(F)F)cc(N2[C@H](C(=O)N(CC#Cc3cncc(C(N)=O)n3)c3ccc(F)c(C)c3)CCS2(=O)=O)n1 [compound 63]
1 to 50 nM	Cc1cc(C(F)(F)F)cc(N2[C@H](C(=O)N(CC#Cc3cnc(-n4ccnn4)cn3)c3ccc(F)c(C)c3)CCS2(=O)=O)n1 [compound 57]
1 to 50 nM	Cc1cc(C(F)(F)F)cc(N2[C@H](C(=O)N(CC#Cc3ccc(N)nn3)c3ccc(F)c(C)c3)CN(C(C)C)S2(=O)=O)n1 [compound 110]
1 to 50 nM	Cc1cc(C(F)(F)F)cc(N2[C@H](C(=O)N(CC#Cc3cnc(C(N)=O)nn3)c3ccc(F)c(C)c3)CCS2(=O)=O)n1 [compound 123]
> 101 nM	Cc1cc(C(F)(F)F)cc(N2[C@H](C(=O)N(CC#Cc3cnc(S(N)(=O)=O)cn3)c3ccc(F)c(C)c3)CCS2(=O)=O)n1 [compound 65]
1 to 50 nM	Cc1cc(C(F)(F)F)cc(N2[C@H](C(=O)N(CC#Cc3cnc(C(=O)O)cn3)c3ccc(F)c(C)c3)CCS2(=O)=O)n1 [compound 60]
1 to 50 nM	CC(=O)Nc1ccc(C#CCN(C(=O)[C@@H]2CCS(=O)(=O)N2c2cc(C(F)(F)F)cc(C)n2)c2ccc(F)c(C)c2)nn1 [compound 22]
